test system: Digitaria sanguinalis (DIGSA); test: Post-emergence efficacy, glasshouse; type: in vivo; conditions: Digitaria sanguinalis, post-emergence, 312 h, Application Rate 500 g/Ha; evaluated after 13 days; 100=total damage to plant, 0=no damage to plant; read-out: Control of weed species after post-emergence application, DIGSA
How it was run: (§1)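 Plants grown 14 days in standard soil in pots in the glasshouse (24/16° C. day/night, 14 h light, 65% humidity) were sprayed with test compound diluted in 0.25% or 1% Empicol ESC70 plus 1% ammonium sulphate in water. Damage was scored 13 days later (0 = none, 100 = total).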

Row | SMILES | pest or weed control at 500 g/ha
1 | COC(=O)CC[n+]1cc(C(=O)[N-]S(=O)(=O)C2CC2)c2ccccc2n1 [Compound A19, cyclopropylsulfonyl-[2-(3-methoxy-3-oxo-propyl)cinnolin-2-ium-4-carbonyl]azanide] | 40%
2 | CCOP(=O)([O-])c1c[n+](C(C)(C)C)nc2ccccc12 [Compound A75, (2-tert-butylcinnolin-2-ium-4-yl)-ethoxy-phosphinate] | 30%

same assay, conditions: Digitaria sanguinalis, post-emergence, 312 h; Application Rate 1000 g/Ha; evaluated after 13 days; 100=total damage to plant, 0=no damage to plant; read-out: Control of weed species after post-emergence application, DIGSA

Row | SMILES | pest or weed control at 1000 g/ha
3 | CC[n+]1cc(P(=O)([O-])OC)c2ccccc2n1 [Compound A65] | 90%

test system: Euphorbia heterophylla (EPHHL); test: Post-emergence efficacy, glasshouse; type: in vivo; conditions: Euphorbia heterophylla, post-emergence, 312 h, Application Rate 500 g/Ha; evaluated after 13 days; 100=total damage to plant, 0=no damage to plant; read-out: Control of weed species after post-emergence application, EPHHL
How it was run: as §1

Row | SMILES | pest or weed control at 500 g/ha
4 | COC(=O)CC[n+]1cc(C(=O)[N-]S(=O)(=O)C2CC2)c2ccccc2n1 [Compound A19, cyclopropylsulfonyl-[2-(3-methoxy-3-oxo-propyl)cinnolin-2-ium-4-carbonyl]azanide] | 40%
5 | CCOP(=O)([O-])c1c[n+](C(C)(C)C)nc2ccccc12 [Compound A75, (2-tert-butylcinnolin-2-ium-4-yl)-ethoxy-phosphinate] | 30%

same assay, conditions: Euphorbia heterophylla, post-emergence, 312 h; Application Rate 1000 g/Ha; evaluated after 13 days; 100=total damage to plant, 0=no damage to plant; read-out: Control of weed species after post-emergence application, EPHHL

Row | SMILES | pest or weed control at 1000 g/ha
6 | CC[n+]1cc(P(=O)([O-])OC)c2ccccc2n1 [Compound A65] | 100%

test system: Amaranthus palmeri (AMAPA); test: Post-emergence efficacy, glasshouse; type: in vivo; conditions: Amaranthus palmeri, post-emergence, 312 h, Application Rate 500 g/Ha; evaluated after 13 days; 100=total damage to plant, 0=no damage to plant; read-out: Control of weed species after post-emergence application, AMAPA
How it was run: as §1

Row | SMILES | pest or weed control at 500 g/ha
7 | COC(=O)CC[n+]1cc(C(=O)[N-]S(=O)(=O)C2CC2)c2ccccc2n1 [Compound A19, cyclopropylsulfonyl-[2-(3-methoxy-3-oxo-propyl)cinnolin-2-ium-4-carbonyl]azanide] | 30%
8 | CCOP(=O)([O-])c1c[n+](C(C)(C)C)nc2ccccc12 [Compound A75, (2-tert-butylcinnolin-2-ium-4-yl)-ethoxy-phosphinate] | 50%

same assay, conditions: Amaranthus palmeri, post-emergence, 312 h; Application Rate 1000 g/Ha; evaluated after 13 days; 100=total damage to plant, 0=no damage to plant; read-out: Control of weed species after post-emergence application, AMAPA

Row | SMILES | pest or weed control at 1000 g/ha
9 | CC[n+]1cc(P(=O)([O-])OC)c2ccccc2n1 [Compound A65] | 90%

test system: Chenopodium album (CHEAL); test: Post-emergence efficacy, glasshouse; type: in vivo; conditions: Chenopodium album, post-emergence, 312 h, Application Rate 500 g/Ha; evaluated after 13 days; 100=total damage to plant, 0=no damage to plant; read-out: Control of weed species after post-emergence application, CHEAL
How it was run: as §1

Row | SMILES | pest or weed control at 500 g/ha
10 | COC(=O)CC[n+]1cc(C(=O)[N-]S(=O)(=O)C2CC2)c2ccccc2n1 [Compound A19, cyclopropylsulfonyl-[2-(3-methoxy-3-oxo-propyl)cinnolin-2-ium-4-carbonyl]azanide] | 60%
11 | CCOP(=O)([O-])c1c[n+](C(C)(C)C)nc2ccccc12 [Compound A75, (2-tert-butylcinnolin-2-ium-4-yl)-ethoxy-phosphinate] | 50%

same assay, conditions: Chenopodium album, post-emergence, 312 h; Application Rate 1000 g/Ha; evaluated after 13 days; 100=total damage to plant, 0=no damage to plant; read-out: Control of weed species after post-emergence application, CHEAL

Row | SMILES | pest or weed control at 1000 g/ha
12 | CC[n+]1cc(P(=O)([O-])OC)c2ccccc2n1 [Compound A65] | 90%

test system: Eleusine indica (ELEIN); test: Post-emergence efficacy, glasshouse; type: in vivo; conditions: Eleusine indica, post-emergence, 312 h, Application Rate 500 g/Ha; evaluated after 13 days; 100=total damage to plant, 0=no damage to plant; read-out: Control of weed species after post-emergence application, ELEIN
How it was run: as §1

Row | SMILES | pest or weed control at 500 g/ha
13 | COC(=O)CC[n+]1cc(C(=O)[N-]S(=O)(=O)C2CC2)c2ccccc2n1 [Compound A19, cyclopropylsulfonyl-[2-(3-methoxy-3-oxo-propyl)cinnolin-2-ium-4-carbonyl]azanide] | 50%
14 | CCOP(=O)([O-])c1c[n+](C(C)(C)C)nc2ccccc12 [Compound A75, (2-tert-butylcinnolin-2-ium-4-yl)-ethoxy-phosphinate] | 70%

same assay, conditions: Eleusine indica, post-emergence, 312 h; Application Rate 1000 g/Ha; evaluated after 13 days; 100=total damage to plant, 0=no damage to plant; read-out: Control of weed species after post-emergence application, ELEIN

Row | SMILES | pest or weed control at 1000 g/ha
15 | CC[n+]1cc(P(=O)([O-])OC)c2ccccc2n1 [Compound A65] | 80%

test system: Lolium perenne (LOLPE); test: Post-emergence efficacy, glasshouse; type: in vivo; conditions: Lolium perenne, post-emergence, 312 h, Application Rate 500 g/Ha; evaluated after 13 days; 100=total damage to plant, 0=no damage to plant; read-out: Control of weed species after post-emergence application, LOLPE
How it was run: as §1

Row | SMILES | pest or weed control at 500 g/ha
16 | COC(=O)CC[n+]1cc(C(=O)[N-]S(=O)(=O)C2CC2)c2ccccc2n1 [Compound A19, cyclopropylsulfonyl-[2-(3-methoxy-3-oxo-propyl)cinnolin-2-ium-4-carbonyl]azanide] | 20%
17 | CCOP(=O)([O-])c1c[n+](C(C)(C)C)nc2ccccc12 [Compound A75, (2-tert-butylcinnolin-2-ium-4-yl)-ethoxy-phosphinate] | 30%

same assay, conditions: Lolium perenne, post-emergence, 312 h; Application Rate 1000 g/Ha; evaluated after 13 days; 100=total damage to plant, 0=no damage to plant; read-out: Control of weed species after post-emergence application, LOLPE

Row | SMILES | pest or weed control at 1000 g/ha
18 | CC[n+]1cc(P(=O)([O-])OC)c2ccccc2n1 [Compound A65] | 40%

test system: Setaria faberi (SETFA); test: Post-emergence efficacy, glasshouse; type: in vivo; conditions: Setaria faberi, post-emergence, 312 h, Application Rate 500 g/Ha; evaluated after 13 days; 100=total damage to plant, 0=no damage to plant; read-out: Control of weed species after post-emergence application, SETFA
How it was run: as §1

Row | SMILES | pest or weed control at 500 g/ha
19 | COC(=O)CC[n+]1cc(C(=O)[N-]S(=O)(=O)C2CC2)c2ccccc2n1 [Compound A19, cyclopropylsulfonyl-[2-(3-methoxy-3-oxo-propyl)cinnolin-2-ium-4-carbonyl]azanide] | 0%
20 | CCOP(=O)([O-])c1c[n+](C(C)(C)C)nc2ccccc12 [Compound A75, (2-tert-butylcinnolin-2-ium-4-yl)-ethoxy-phosphinate] | 30%

same assay, conditions: Setaria faberi, post-emergence, 312 h; Application Rate 1000 g/Ha; evaluated after 13 days; 100=total damage to plant, 0=no damage to plant; read-out: Control of weed species after post-emergence application, SETFA

Row | SMILES | pest or weed control at 1000 g/ha
21 | CC[n+]1cc(P(=O)([O-])OC)c2ccccc2n1 [Compound A65] | 80%

test system: Echinochloa crus-galli (ECHCG); test: Post-emergence efficacy, glasshouse; type: in vivo; conditions: Echinochloa crus-galli, post-emergence, 312 h, Application Rate 500 g/Ha; evaluated after 13 days; 100=total damage to plant, 0=no damage to plant; read-out: Control of weed species after post-emergence application, ECHCG
How it was run: as §1

Row | SMILES | pest or weed control at 500 g/ha
22 | COC(=O)CC[n+]1cc(C(=O)[N-]S(=O)(=O)C2CC2)c2ccccc2n1 [Compound A19, cyclopropylsulfonyl-[2-(3-methoxy-3-oxo-propyl)cinnolin-2-ium-4-carbonyl]azanide] | 60%
23 | CCOP(=O)([O-])c1c[n+](C(C)(C)C)nc2ccccc12 [Compound A75, (2-tert-butylcinnolin-2-ium-4-yl)-ethoxy-phosphinate] | 70%

same assay, conditions: Echinochloa crus-galli, post-emergence, 312 h; Application Rate 1000 g/Ha; evaluated after 13 days; 100=total damage to plant, 0=no damage to plant; read-out: Control of weed species after post-emergence application, ECHCG

Row | SMILES | pest or weed control at 1000 g/ha
24 | CC[n+]1cc(P(=O)([O-])OC)c2ccccc2n1 [Compound A65] | 50%

test system: Ipomoea hederacea (IPOHE); test: Post-emergence efficacy, glasshouse; type: in vivo; conditions: Ipomoea hederacea, post-emergence, 312 h, Application Rate 500 g/Ha; evaluated after 13 days; 100=total damage to plant, 0=no damage to plant; read-out: Control of weed species after post-emergence application, IPOHE
How it was run: as §1

Row | SMILES | pest or weed control at 500 g/ha
25 | COC(=O)CC[n+]1cc(C(=O)[N-]S(=O)(=O)C2CC2)c2ccccc2n1 [Compound A19, cyclopropylsulfonyl-[2-(3-methoxy-3-oxo-propyl)cinnolin-2-ium-4-carbonyl]azanide] | 30%
26 | CCOP(=O)([O-])c1c[n+](C(C)(C)C)nc2ccccc12 [Compound A75, (2-tert-butylcinnolin-2-ium-4-yl)-ethoxy-phosphinate] | 30%

same assay, conditions: Ipomoea hederacea, post-emergence, 312 h; Application Rate 1000 g/Ha; evaluated after 13 days; 100=total damage to plant, 0=no damage to plant; read-out: Control of weed species after post-emergence application, IPOHE

Row | SMILES | pest or weed control at 1000 g/ha
27 | CC[n+]1cc(P(=O)([O-])OC)c2ccccc2n1 [Compound A65] | 70%

Reference: patent US20220132847A1, “CINNOLINIUM COMPOUNDS FOR USE IN A METHOD OF CONTROLLING UNWANTED PLANT GROWTH” (SYNGENTA CROP PROTECTION AG, priority 2019, published 2022)
